# Calls of active or inactive are those of the source. No cut-off for these calls is given here.
# Test system: Escherichia coli
# Assay: Antimicrobial activity against Escherichia coli at 100 ug/disk by standard disk assay
# Type: functional, organism-based
compound,measurement,value
CC1(C)C[C@@H]2C3=C[C@@H](O)C[C@](C)(CC[C@@H]21)C3,Activity,Active
